# Test results from patent US5399566A, “Pyridine derivatives having angiotensin II antagonism” (Meiji Seika Kabushiki Kaisha, priority 1990, dated 1995).
# What was measured:
# [1] = molecular target: T1, contraction response to angiotensin II at the isolated thoracic aorta of rabbit (Oryctolagus cuniculus, UniProt P34976); assay: In vitro angiotensin II antagonism, isolated rabbit thoracic aorta (Schild pA2); assay type: cell-based; settings: Schild plot
# T1 construct: A strip of thoracic aorta of a male rabbit (2.5-3.0 kg) was prepared by the usual method; from tissue; host or cells: rabbit thoracic aorta strip
# T1 sequence (P34976 1-359): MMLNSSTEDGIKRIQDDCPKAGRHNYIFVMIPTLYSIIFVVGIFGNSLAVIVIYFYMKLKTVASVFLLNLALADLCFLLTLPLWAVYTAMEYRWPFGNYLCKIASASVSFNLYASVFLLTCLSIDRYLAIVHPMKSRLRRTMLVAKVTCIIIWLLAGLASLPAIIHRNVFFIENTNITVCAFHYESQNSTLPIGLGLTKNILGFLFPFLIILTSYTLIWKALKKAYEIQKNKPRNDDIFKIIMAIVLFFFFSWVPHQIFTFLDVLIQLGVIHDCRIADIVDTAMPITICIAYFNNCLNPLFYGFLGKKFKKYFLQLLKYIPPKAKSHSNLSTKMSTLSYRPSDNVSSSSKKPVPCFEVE
# Description: (§1) The angiotensin II antagonistic activities in vitro were compared on the basis of the intensities (pA2 value) of antagonizing the contraction response to angiotensin II at the isolated thoracic aorta of rabbit. The in vivo activities were examined by comparing the inhibitory effects on the hypertensive action by an exogenous angiotensin II in a non-anesthetized rat and the hypotensive effects of a renal hypertensive rat or a spontaneously hypertensive rat.
# A strip of thoracic aorta of a male rabbit (2.5-3.0 kg) was prepared by the usual method and suspended in an organ bath containing well oxygenated Krebs-Henseleit solution at 37° C. The pA2 value was calculated according to the method described by H. O. Schild (British Journal of Pharmacology and Chemotherapeutics, 2, 189-206, 1947). A strip treated with 3-5 doses of a subject compound in an amount of 10^-6 M-10^-10 M and a strip treated with no drug were employed for obtaining a dose-response curve by angiotensin II. Log (dose ratio--1) was calculated from the shift of the dose-response curve of the subject compound, and pA2 value was obtained from the Schild plottings.
# [2] = Toxicity test, oral, mice; settings: mouse, in vivo, ddY male mice 5 weeks old
# Procedure: Several compounds of the present invention represented by the general formula (I) were administered orally by compulsion to ddY male mice of 5 weeks old (average weight, ca. 20 g).
# [3] = test system: hypertensive action by angiotensin II; assay: Inhibition on the hypertensive action by an exogenous angiotensin II in conscious rats; assay type: in vivo, Spraque-Dawley (SD) male rats; settings: oral; for ED50: Rattus norvegicus, within 6 hours after administration, read-out: ED50 (dose required for inhibiting the hypertensive action by angiotensin II to the extent of 50%); for inhibitory effect on the hypertensive action by angiotensin II: angiotensin II 0.1 μg/kg i.v.
# Description: as §1
# Anesthetized Spraque-Dawley (SD) male rats were cannulated into a femoral artery and a femoral vein and used for the experiment at the time when it has elapsed at least 24 hours after the operation. The hypertensive action caused by angiotensin II (0.1 μg/kg) which has been administered through the vein catheter was measured under conscious and unrestrained condition before and after administration of the compound. The artery catheter was connected to a pressure transducer to measure a mean blood pressure, and the subject compounds were orally administered in the form of a homogeneous suspension in a 0.5% aqueous carboxymethyl cellulose solution.
# The intensities of the inhibitory effects within 6 hours after administration of the compound were examined on the basis of the dose of the compound required for inhibiting the hypertensive action by angiotensin II to the extent of 50% (ED50 values).
# Fisher 344 male rats = assay: Antianxiety effect, elevated plus maze; assay type: in vivo; settings: diazepam 3 mg/kg
# Procedure: The subject compounds were examined on their antianxiety effect with the light and dark box according to the method described by B. Costall et al. (Pharmacology Biochemistry and Behavior, 32, 777-785, 1989) and with the elevated plus maze by S. Pell et al. (Journal of Neuroscience Methods, 14, 149-167, 1985).
# To Fisher 344 male rats (5-6 weeks old), the subject compounds were orally administered at a dose of 1-100 μg/kg in the form of a homogeneous suspension or solution in a 0.5% aqueous carboxymethyl cellulose solution. Among the four arms of the elevated plus maze (a device in which four arms are intersected crosswise and connected together at a height of 50 cm from the floor), the two arms with side walls are referred to as closed arms and the two arms without side walls are referred to as open arms. […] As the indices of the behavior, the latency until stepped out from the arm first placed to the other arm and the durations in the respective arms were measured, and the other behaviors were recorded. Diazepam was used as a control agent, and the drug administered group and the solvent administered group (group to which a 0.5% aqueous carboxymethyl cellulose solution was administered)were compared for the behaviors.
Structure (SMILES),Kb [1],inhibitory effect on the hypertensive action by angiotensin II ([3]; dose of 1 mg/kg or less),inhibitory effect on the hypertensive action by angiotensin II ([3]; 3 mg/kg),also measured
"CCc1cc(OCc2ccc(-c3ccccc3-c3nnn[nH]3)cc2)cc(CC)n1 [Example 1, 2,6-Diethyl-4-[2'-(tetrazol-5-yl)biphenyl-4-yl]-methoxypyridine]",5.25 nM,significant inhibitory effects,,LD50 [2]: > 1000 mg/kg; ED50 [3]: 0.6 mg/kg
"CCc1cc(OCc2ccc(-c3ccccc3-c3nnn[nH]3)cc2)cc(C)n1 [Example 3, 2-ethyl-6-methyl-4-[2'-(tetrazol-5-yl)biphenyl-4-yl]-methoxypyridine]",5.75 nM,,,LD50 [2]: > 1000 mg/kg; ED50 [3]: 1.35 mg/kg
"CCOc1c(OCc2ccc(-c3ccccc3-c3nnn[nH]3)cc2)cc(C)nc1C [Example 12, 3-ethoxy-2,6-dimethyl-4-[2'-(tetrazol-5-yl)biphenyl-4-yl]methoxypyridine]",1.74 nM,significant inhibitory effects,,LD50 [2]: > 1000 mg/kg; ED50 [3]: 0.56 mg/kg
"CCc1nc(C)cc(OCc2ccc(-c3ccccc3-c3nnn[nH]3)cc2)c1OC [Example 16, 2-ethyl-3-methoxy-6-methyl-4-[2'-(tetrazol-5-yl)biphenyl-4-yl]methoxypyridine]",0.912 nM,significant inhibitory effects,,
"Cc1cc(OCc2ccc(-c3ccccc3-c3nnn[nH]3)cc2)c(OCc2ccccc2)c(C)n1 [Example 21, 3-benzyloxy-2,6-dimethyl-4-[2'-(tetrazol-5-yl)biphenyl-4yl]-methoxypyridine]",6.76 nM,,significant inhibitory effects,
"CCOC(=O)c1c(OCc2ccc(-c3ccccc3-c3nnn[nH]3)cc2)cc(CC)nc1C [Example 44, 3-ethoxycarbonyl-6-ethyl-2-methyl-4-[2'-(tetrazol-5-yl)-biphenyl-4-yl]methoxypyridine]",1 nM,,significant inhibitory effects,
"CCc1nc(C)cc(OCc2ccc(-c3ccccc3-c3nnn[nH]3)cc2)c1C(=O)OC [Example 46, 2-ethyl-3-methoxycarbonyl-6-methyl-4-[2'-(tetrazol-5-yl)-biphenyl-4-yl]methoxypyridine]",0.617 nM,significant inhibitory effects,,
"Cc1cc(OCc2ccc(-c3ccccc3-c3nnn[nH]3)cc2)c(C(=O)N(C)C)c(C)n1 [Example 53, 2,6-Dimethyl-3-(N,N-dimethylcarbamoyl)-4-[2'-(tetrazol-5-yl)bipbenyl-4-yl]methoxypyridine]",3.02 nM,,significant inhibitory effects,
"Cc1cc(OCc2ccc(-c3ccccc3-c3nn[nH]n3)cc2)c(CO)c(C)n1 [Example 55, 3-Hydroxymethyl-2,6-dimethyl-4-[2'-(tetrazol-5-yl)biphenyl-4-yl]methoxypyridine]",12.3 nM,,,
"COCc1c(OCc2ccc(-c3ccccc3-c3nnn[nH]3)cc2)cc(C)nc1C [Example 57, 3-Methoxymethyl-2,6-dimethyl-4-[2'-(tetrazol-5-yl)-biphenyl-4-yl]methoxypyridine]",6.17 nM,,significant inhibitory effects,
"CC(=O)OCc1c(OCc2ccc(-c3ccccc3-c3nnn[nH]3)cc2)cc(C)nc1C [Example 67, 3-Acetoxymethyl-2,6-dimethyl-4-[2'-(tetrazol-5-yl)-biphenyl-4-yl]methoxypyridine]",0.129 nM,,,
"Cc1cc(OCc2ccc(-c3ccccc3-c3nnn[nH]3)cc2)c(C=O)c(C)n1 [Example 68, 3-Formyl-2,6-dimethyl-4-[2'-(tetrazol-5-yl)biphenyl-4-yl]methoxypyridine]",5.89 nM,,,
"CCc1cc(OCc2ccc(-c3ccccc3C(=O)O)cc2)cc(CC)n1 [Example 81, 2,6-diethyl-4-(2'-carboxybiphenyl-4-yl)m ethoxypyridine]",9.77 nM,,significant inhibitory effects,
"CCOc1c(OCc2ccc(-c3ccccc3C(=O)O)cc2)cc(C)nc1C [Example 83, 3-ethoxy-2,6-dimethyl-4-(2'-carboxybiphenyl-4yl)methoxypyridine]",28.2 nM,significant inhibitory effects,,LD50 [2]: > 1000 mg/kg; ED50 [3]: 1.21 mg/kg
CN1C(=O)CN=C(c2ccccc2)c2cc(Cl)ccc21 [diazepam],,,,duration out of the closed arm (Fisher 344 male rats): increased; latency until stepped out from the arm first placed (Fisher 344 male rats): significantly decreased; transitions (Fisher 344 male rats): increased
